According to publication PMC3618516, “A Systematic Screen of FDA-Approved Drugs for Inhibitors of Biological Threat Agents” (PLoS ONE, 2013):
Read-outs that look alike come from different tables or passages of the source.

Tests used:
Francisella tularensis [1] = type: cell-based; details: 50 µM
Coxiella burnetii = experiment: microbe, parasite or virus in culture; type: cell-based; details: Vero, 168 h, read-out: Coxiella burnetii ICR (% protection)
Bacillus anthracis [2] = type: cell-based; details: 50 µM
Francisella tularensis [3] = experiment: microbe, parasite or virus in culture; type: cell-based; details: J774.A1, 15 h, read-out: Fransciella tularensis ICR (% protection)
Bacillus anthracis [4] = experiment: microbe, parasite or virus in culture; type: cell-based; details: J774.A1, 15 h, read-out: Bacillus anthracis ICR (% protection)
[5] = system: LASV GP-pseudotyped vesicular stomatitis virus; experiment: microbe, parasite or virus in culture; type: cell-based, Lassa virus; details: Vesicular stomatitis virus, HEK-293T, read-out: LASV VPEN (% activity)
LASV = type: cell-based, Lassa virus
[6] = system: EBOV GP-pseudotyped vesicular stomatitis virus; experiment: microbe, parasite or virus in culture; type: cell-based, Ebola virus; details: for inhibition at 10 µM / inhibition at 50 µM: HEK-293T, read-out: EBOV VPEN (% activity); for EC50: read-out: EC50, EBOV Entry; for EC90: read-out: EC90, EBOV Entry
[7] = system: MARV GP-pseudotyped vesicular stomatitis virus; experiment: microbe, parasite or virus in culture; type: cell-based, Marburg virus; details: for inhibition at 10 µM / inhibition at 50 µM: HEK-293T, read-out: MASV VPEN (% activity); for EC50: read-out: EC50, MARV Entry; for EC90: read-out: EC90, MARV Entry
EBOV [8] = type: cell-based, Ebola virus
[9] = humans, cited from earlier work
EBOV [10] = experiment: microbe, parasite or virus in culture; type: cell-based, Ebola virus; details: for EC50: read-out: EC50, EBOV Replication; for EC90: read-out: EC90, EBOV Replication
MARV = experiment: organism not typed; type: cell-based, Marburg virus; details: for EC50: read-out: EC50, MARV Replication; for EC90: read-out: EC90, MARV Replication
[11] = system: EBOV virus-like particles; type: cell-based, Ebola virus
[12] = Vesicular stomatitis virus, 10 µM

CN(C)[C@@H]1C(O)=C(C(N)=O)C(=O)[C@@]2(O)C(O)=C3C(=O)c4c(O)cccc4[C@@](C)(O)[C@H]3[C@H](O)[C@@H]12 [Oxytetracycline]
Fransciella tularensis Broth (% protection) (Francisella tularensis [1]): +
inhibition of growth at 50 µM (Coxiella burnetii): 0%
Bacillus anthracis Broth (% protection) (Bacillus anthracis [2]): +
inhibition at 50 µM (Francisella tularensis [3]): 92%
inhibition at 50 µM (Bacillus anthracis [4]): 94%

CO/N=C1\CN(c2nc3c(cc2F)c(=O)c(C(=O)O)cn3C2CC2)CC1CN (centres unmarked) [Gemifloxacin]
Fransciella tularensis Broth (% protection) (Francisella tularensis [1]): −
inhibition of growth at 50 µM (Coxiella burnetii): 0%
Bacillus anthracis Broth (% protection) (Bacillus anthracis [2]): −
inhibition at 50 µM (Francisella tularensis [3]): 91%
inhibition at 50 µM (Bacillus anthracis [4]): 97%

OC(CCN1CCCCC1)(c1ccccc1)C1CCCCC1 (centres unmarked) [Trihexyphenidyl]
inhibition at 10 µM [5]: 52%
LASV VR (LASV): −
inhibition at 10 µM ([6]; Zaire ebolavirus): 97%
inhibition at 10 µM ([7]; Vesicular stomatitis virus): 91%
EBOV VR (EBOV [8]): −

CN(C)[C@@H]1C(O)=C(C(N)=O)C(=O)[C@@]2(O)C(O)=C3C(=O)c4c(O)cccc4[C@@](C)(O)[C@H]3C[C@@H]12 [Tetracycline]
inhibition of growth at 50 µM (Coxiella burnetii): 0%
inhibition at 50 µM (Francisella tularensis [3]): 103%
inhibition at 50 µM (Bacillus anthracis [4]): 105%

CN1CCC(OC(c2ccccc2)c2ccccc2)CC1 [Diphenylpyraline]
inhibition at 50 µM [5]: 22%
LASV VR (LASV; 50 µM): −
inhibition at 50 µM ([6]; Zaire ebolavirus): 96%
inhibition at 50 µM ([7]; Vesicular stomatitis virus): 85%
EBOV VR (EBOV [8]; 50 µM): +

CNCC(O)c1ccc(OC(=O)C(C)(C)C)c(OC(=O)C(C)(C)C)c1 (centres unmarked) [Dipivefrin]
inhibition at 50 µM [5]: 90%
LASV VR (LASV; 50 µM): −
inhibition at 50 µM ([6]; Zaire ebolavirus): 94%
inhibition at 50 µM ([7]; Vesicular stomatitis virus): 90%
EBOV VR (EBOV [8]; 50 µM): −

CCC[C@@H]1C[C@@H](C(=O)N[C@@H]([C@H]2O[C@H](SC)[C@H](O)[C@@H](O)[C@H]2O)[C@H](C)Cl)N(C)C1 [Clindamycin]
inhibition of growth at 50 µM (Coxiella burnetii): 0%
inhibition at 50 µM (Francisella tularensis [3]): 83%

CNCCC(Oc1ccc(C(F)(F)F)cc1)c1ccccc1 (centres unmarked) [Fluoxetine]
inhibition at 10 µM ([5]; 10 µM): 76%
LASV VR (LASV; 10 µM): −
inhibition at 10 µM ([6]; Zaire ebolavirus, 10 µM): 96%
inhibition at 10 µM [7, 12]: 98%
EBOV VR (EBOV [8]; 10 µM): −

CCCCOc1cc(C(=O)NCCN(CC)CC)c2ccccc2n1 [Dibucaine]
inhibition at 10 µM ([5]; 10 µM): 49%
inhibition at 10 µM ([6]; Zaire ebolavirus, 10 µM): 99%
inhibition at 10 µM [7, 12]: 93%
EBOV VR (EBOV [8]; 10 µM): −

CC(C(=O)O)c1ccc2c(c1)[nH]c1ccc(Cl)cc12 (centres unmarked) [Carprofen]
inhibition at 10 µM ([5]; 10 µM): 50%
LASV VR (LASV; 10 µM): −
inhibition at 10 µM ([6]; Zaire ebolavirus, 10 µM): 94%
inhibition at 10 µM [7, 12]: 88%
EBOV VR (EBOV [8]; 10 µM): −

CCn1cc(C(=O)O)c(=O)c2cc(F)c(N3CCNCC3)cc21 [Norfloxacin]
Fransciella tularensis Broth (% protection) (Francisella tularensis [1]): +
inhibition of growth at 50 µM (Coxiella burnetii): 0%
Cmax ([9]; dose not given): 2000 ng/mL
Bacillus anthracis Broth (% protection) (Bacillus anthracis [2]): +
inhibition at 50 µM (Francisella tularensis [3]): 83%
inhibition at 50 µM (Bacillus anthracis [4]): 105%

CC[C@H]1OC(=O)[C@H](C)[C@@H](O[C@H]2C[C@@](C)(OC)[C@@H](O)[C@H](C)O2)[C@H](C)[C@@H](O[C@@H]2O[C@H](C)C[C@H](N(C)C)[C@H]2O)[C@](C)(OC)C[C@@H](C)C(=O)[C@H](C)[C@@H](O)[C@]1(C)O [Clarithromycin]
bioavailable ([9]; no reference given): ~50%

CN(C)CCOc1ccc(/C(=C(/CCCl)c2ccccc2)c2ccccc2)cc1 [Toremifene]
inhibition at 10 µM ([5]; 10 µM): 76%
inhibition at 10 µM ([6]; Zaire ebolavirus, 10 µM): 97%
inhibition at 10 µM [7, 12]: 96%

Fc1ccc([C@@H]2CCNC[C@H]2COc2ccc3c(c2)OCO3)cc1 [Paroxetine]
inhibition at 10 µM ([5]; 10 µM): 6%
LASV VR (LASV; 10 µM): −
inhibition at 10 µM ([6]; Zaire ebolavirus, 10 µM): 98%
inhibition at 10 µM [7, 12]: 89%
EBOV VR (EBOV [8]; 10 µM): −

CCN(CC)CCCNc1ccnc2cc(Cl)ccc12 [AQ-13, Aminoquinoline-13]
EC50 (EBOV [10]): 21 µM
EC90 (EBOV [10]): 39 µM
EC50 [6]: 4.3 µM
EC90 [6]: 20 µM
EC50 (MARV): 42 µM
EC90 (MARV): 48 µM
EC50 [7]: 4.3 µM
EC90 [7]: 16 µM

OC(CCN1CCCCC1)(c1ccccc1)C1CC2C=CC1C2 (centres unmarked) [Biperiden]
inhibition at 50 µM [5]: 27%
LASV VR (LASV; 50 µM): −
inhibition at 50 µM ([6]; Zaire ebolavirus): 98%
inhibition at 50 µM ([7]; Vesicular stomatitis virus): 89%
EBOV VR (EBOV [8]; 50 µM): −

CCOC(=O)C1=C(COCCN)NC(C)=C(C(=O)OC)C1c1ccccc1Cl (centres unmarked) [Amlodipine]
inhibition at 10 µM ([5]; 10 µM): 61%
inhibition at 10 µM ([6]; Zaire ebolavirus, 10 µM): 93%
inhibition at 10 µM [7, 12]: 93%

CN1CCC(=C2c3ccccc3CC(=O)c3sccc32)CC1 [Ketotifen]
inhibition at 50 µM [5]: 33%
LASV VR (LASV; 50 µM): −
inhibition at 50 µM ([6]; Zaire ebolavirus): 99%
inhibition at 50 µM ([7]; Vesicular stomatitis virus): 97%
EBOV VR (EBOV [8]; 50 µM): +

CC(C)(C)NC[C@H](O)COc1ccccc1C1CCCC1 [Penbutolol]
inhibition at 10 µM ([5]; 10 µM): 67%
inhibition at 10 µM ([6]; Zaire ebolavirus, 10 µM): 98%
inhibition at 10 µM [7, 12]: 81%

COc1c(C)c2c(c(O)c1C/C=C(\C)CCC(=O)OCCN1CCOCC1)C(=O)OC2 [Mycophenolate mofetil]
inhibition at 50 µM [5]: 69%
LASV VR (LASV; 50 µM): −
inhibition at 50 µM ([6]; Zaire ebolavirus): 91%
inhibition at 50 µM ([7]; Vesicular stomatitis virus): 81%
EBOV VR (EBOV [8]; 50 µM): −

CN(C)CC[C@@H](c1ccc(Br)cc1)c1ccccn1 [Dexbrompheniramine]
inhibition at 50 µM [5]: 74%
inhibition at 50 µM ([6]; Zaire ebolavirus): 85%
inhibition at 50 µM ([7]; Vesicular stomatitis virus): 80%

CN(C)c1ccc(O)c2c1C[C@H]1C[C@H]3[C@H](N(C)C)C(O)=C(C(N)=O)C(=O)[C@@]3(O)C(O)=C1C2=O [Minocycline]
Fransciella tularensis Broth (% protection) (Francisella tularensis [1]): −
inhibition of growth at 50 µM (Coxiella burnetii): 0%
Bacillus anthracis Broth (% protection) (Bacillus anthracis [2]): −
inhibition at 50 µM (Francisella tularensis [3]): 92%
inhibition at 50 µM (Bacillus anthracis [4]): 95%

CCC(=O)O[C@@](Cc1ccccc1)(c1ccccc1)[C@@H](C)CN(C)C [Levopropoxyphene]
inhibition at 50 µM [5]: 79%
inhibition at 50 µM ([6]; Zaire ebolavirus): 98%
inhibition at 50 µM ([7]; Vesicular stomatitis virus): 89%

CCN[C@@H]1C[C@H](N)[C@@H](O[C@H]2OC(CN)=CC[C@H]2N)[C@H](O)[C@H]1O[C@H]1OC[C@](C)(O)[C@H](NC)[C@H]1O [Netilmicin]
Fransciella tularensis Broth (% protection) (Francisella tularensis [1]): +
inhibition of growth at 50 µM (Coxiella burnetii): 100%
Bacillus anthracis Broth (% protection) (Bacillus anthracis [2]): +
inhibition at 50 µM (Francisella tularensis [3]): -2%
inhibition at 50 µM (Bacillus anthracis [4]): 98%

CN1CCCN=C1COC(=O)C(O)(c1ccccc1)C1CCCCC1 (centres unmarked) [Oxyphencyclimine]
inhibition at 50 µM [5]: 28%
LASV VR (LASV; 50 µM): −
inhibition at 50 µM ([6]; Zaire ebolavirus): 95%
inhibition at 50 µM ([7]; Vesicular stomatitis virus): 89%
EBOV VR (EBOV [8]; 50 µM): −

CCN(CCO)CCCC(C)Nc1ccnc2cc(Cl)ccc12 (centres unmarked) [HCQ, Hydroxychloroquine]
EC50 (EBOV [10]; Zaire ebolavirus): 22 µM
EC90 (EBOV [10]; Zaire ebolavirus): 32 µM
EC50 ([6]; Zaire ebolavirus): 9.5 µM
EC90 ([6]; Zaire ebolavirus): 85 µM
effect on number of VLPs bound per cell [11]: no significant difference in binding
EC50 (MARV): 18 µM
EC90 (MARV): 19 µM
EC50 ([7]; Vesicular stomatitis virus): 9.8 µM
EC90 ([7]; Vesicular stomatitis virus): 52 µM

C[C@]12CC[C@@H]3c4ccc(O)cc4CC[C@H]3[C@@H]1CC[C@@H]2O [Estradiol]
inhibition at 10 µM ([5]; 10 µM): 50%
LASV VR (LASV; 10 µM): −
inhibition at 10 µM ([6]; Zaire ebolavirus, 10 µM): 93%
inhibition at 10 µM [7, 12]: 98%
EBOV VR (EBOV [8]; 10 µM): −

CC[C@H]1OC(=O)[C@H](C)[C@@H](O[C@H]2C[C@@](C)(OC)[C@@H](O)[C@H](C)O2)[C@H](C)[C@@H](O[C@@H]2O[C@H](C)C[C@H](N(C)C)[C@H]2O)[C@](C)(O)C[C@@H](C)C(=O)[C@H](C)[C@@H](O)[C@]1(C)O [Erythromycin]
inhibition at 10 µM ([5]; 10 µM): 60%
Fransciella tularensis Broth (% protection) (Francisella tularensis [1]): +
LASV VR (LASV; 10 µM): −
inhibition of growth at 50 µM (Coxiella burnetii): 100%
inhibition at 10 µM ([6]; Zaire ebolavirus, 10 µM): 96%
Bacillus anthracis Broth (% protection) (Bacillus anthracis [2]): +
inhibition at 10 µM [7, 12]: 98%
inhibition at 50 µM (Francisella tularensis [3]): 104%
inhibition at 50 µM (Bacillus anthracis [4]): 96%
EBOV VR (EBOV [8]; 10 µM): −

CCOC(=O)C1(c2ccccc2)CCN(CCC(C#N)(c2ccccc2)c2ccccc2)CC1 [Diphenoxylate]
inhibition at 50 µM [5]: 83%
inhibition at 50 µM ([6]; Zaire ebolavirus): 96%
inhibition at 50 µM ([7]; Vesicular stomatitis virus): 95%
EBOV VR (EBOV [8]; 50 µM): +

CN1CCN(CCCN2c3ccccc3Sc3ccc(Cl)cc32)CC1 [Prochlorperazine]
inhibition at 10 µM ([5]; 10 µM): 70%
inhibition at 10 µM ([6]; Zaire ebolavirus, 10 µM): 95%
inhibition at 10 µM [7, 12]: 93%

CNCCCC1c2ccccc2C=Cc2ccccc21 [Protriptyline]
inhibition at 10 µM [5]: 28%
inhibition at 10 µM ([6]; Zaire ebolavirus): 83%
inhibition at 10 µM ([7]; Vesicular stomatitis virus): 80%
